# Measurements reported in patent US20150266864A1, “HETEROAROMATIC COMPOUNDS, METHOD FOR PREPARING THE COMPOUNDS, PHARMACEUTICAL COMPOSITIONS, USES AND METHOD FOR TREATING ACUTE AND CHRONIC PAIN” (CRISTÁLIA PRODUTOS QUÍMICOS FARMACÊUTICOS LTDA, priority 2012, published 2015).
# Assays:
# Swiss mice [1] = experiment: Hot plate model, assay for acute pain; assay type: in vivo; settings: ip, 32.25 μmol/kg, plate 52° C., compared to morphine sulfate at the same dose
# Excerpt: The antinociceptive activity (AA) of the present invention selected compounds (C3, C9, C11, C12, C13, C15 and C17) was investigated in hot plate model [Hot Plate Model LE7406, Scientific Inc.] described by Kuraishi et al. [Kuraishi, Y., Harada, Y., Aratani, S., Satoh, M., Takagi, H. Brain Research 1983.273, 245-2523]. This method is valid to evaluate the analgesic activity of substances acting on the central nervous system. Swiss mice weighing 20-25 g were placed on a metal plate heated up to 52° C. The animals were withdrawn from the hot plate at the time they lead their forepaws toward the mouth to lick, being this an indicative of pain second Le Bars et al. [Le Bars, D., Gozariu, M., Cadden, S. W. Animal models of nociception. Pharmacol. Rev. 2001, 53 (4), 597-652]. In this way, it was analyzed how long the animal, treated or not (control) with the analgesic substance, remained on the plate at 52° C.; the longest residence time of an animal on the plate was 35 seconds. This time limit (or cut off) (35 s) was determined by the average of three measurements of latency control values, obtained for each animal multiplied by three, to prevent any kind of tissue injury on the footpad of animals's paw due to long permanence on the heated surface. The protocol consisted in the intraperitoneal (ip) injection of the selected compounds of the present invention at a dose of 32.25 μmol/kg. The antinociceptive activity was evaluated at intervals of 10 minutes until effect completely disappear and, compared to morphine sulfate ([…]) at the same dose of 32.25 μmoles/kg (12.2 mg/kg). The investigated parameter is the latency of reflex to paw withdrawal in response to thermal stimulus. The results were expressed as percentage of AA, which was calculated according to Equation 1 for each experiment.
# rats subjected to SNL [2] = experiment: Spinal nerve ligation (SNL) L5 model, thermal hyperalgesia; assay type: in vivo, rat
# Method: (§1) This experimental model was proposed by Kim and Chung [Kim, S. H.; Chung, J. M. Pain 1992, 50: 355-363] and consists of ligation of spinal nerves. Male Wistar rats, 180-220 g, were anesthetized with a mixture of ketamine and xylazine (60 mg/kg and 5 mg/kg, respectively) intraperitoneally. After the dorsal region asepsy, an incision was made between L5 and S1. The L6 transverse process was removed for locating the nerves L4 and L5, which were carefully isolated, and tight ligation of the L5 nerve with 6.0 silk thread was made, interrupting flow of the axon of the nerve. After this procedure, para-spinal muscles and skin were sutured, and then a topical antiseptic was applied. False operated animals (sham) were subjected to the same procedure, however the spinal nerve was not ligated.
# This method aims to evaluate the animal behavior in response to hyperalgesic phenomenon resulting from the injury induced by the ligament of spinal nerve (L5). In this regard, paw withdrawal in response to thermal stimulus was used, and the thermal stimulus was induced by the radiant heat of an incandescent lamp bulb. The paw withdrawal test was performed as described for the assessment of thermal hyperalgesia in the sciatic nerve chronic constrictive injury model.
# (§2) Differences were considered significant when p<0.05.
# (§3) The treatment started on the 7th day after surgery. Compounds were diluted in water or DMSO and administered through intraperitoneal route on daily basis, during 7 days, at a dose of […]. The effectiveness of tested compounds was assessed on days 1, 3, and 7 days after treatment, always before the next administration of the compound. Latencies were also assessed on days 1, 3, and 7 after treatment interruption.
# rats subjected to SNL [3] = experiment: Spinal nerve ligation (SNL) L5 model, mechanical allodynia (digital Von Frey); assay type: in vivo, rat
# Method: as §1
# To evaluate the development of mechanical allodynia, digital analgesimeter (Model EFF301; Insight Equipments), digitalized version coupled to a pointed filament (Von Frey model variant) was used. This test aims to assess changes in tactile sensitivity in response to a mechanical stimulus as a result of a neural damage. The device consisted of a hand-held force transducer fitted with a sensor tip, through which a pressure with increasing strength is applied against the footpad of the animals hindpaw to assess the threshold of paw withdrawal, that is, the digital analgesimeter records the maximal strength, in grams (g), in which the animal withstands until the paw withdrawal reflex.
# Animals were placed in individual acrylic boxes and let to acclimate for 30 min before the beginning of the test. After this period, the thresholds of hindpaw withdrawal were determinded. For each hindpaw, five records of the withdrawal thresholds were made, and the average for each hindpaw was defined as the paw withdrawal threshold control.
# as §3, §2
# Swiss-type male mice = experiment: RotaRod performance test, motor coordination; settings: for Mice residence time on the rotational cylinder: 9 rpm, cut off 180 s, mean ± SEM
# Method: The assessment of motor coordination in mice, by the rotarod performance test, was carried out to detect any possible sedative or muscle relaxant effect caused by the compounds of the present invention, previously tested in acute and neuropathic pain models. This test was carried out according to the method of described by Dunham & Miya and animal motor coordination was evaluated using RotaRod apparatus [Dunham M. S. & Miya. R. T. (1957). J. Amer. Pharmac. Assoc. Sci. Edit. 1957, 46, 208-209].
# The RotaRod apparatus (Model 412 EFF, Insight Equipements, Brazil) is a device that measures motor coordination and thus evaluates balance alterations in mice. The apparatus consists of an acrylic box splited into four compartments with a rotational cylinder among them. The cylinder rotates at constant speed driven by a motor and regulated to the constant speed mode of 5-37 revolutions per minute (rpm). In this study the speed was set up to 9 rpm.
# To remain on the rotational cylinder, the animal needs to move around, so that the motor coordination can be quantified. The four compartments have drop detection system, through the impact, a microprocessor circuit, for timing the permanence of the animal at the compartment, and for counting the number of falls.
# The day before the test, Swiss-type male mice (19-25 g) were placed on the rotational cylinder, set up to the constant speed mode of 9 rpm for adaptation and learning. A group of 10 mice were used for each tested compound, and the total period spent on the rotational cylinder (in seconds) was recorded for a period of 180 seconds (cut off time) and it was accept a maximum of three falls for each animal. Motor coordination was assessed at times 0 (before treatment), 15, 30, 60 and 120 minutes after compounds administration at a dose of 32.25 μmol/kg.
# All compounds were administered intraperitoneally (ip).
# The Student's t-test was also used to compare means between two experimental groups. Differences were considered significant when p<0.05.
# Swiss mice [4] = experiment: Hot plate model, assay for acute pain; assay type: in vivo; settings: ip, 32.25 μmol/kg
# [5] = ip during 7 days, 32.25 μmol/kg
# [6] = T 15 min after ip administration, 32.25 μmol/kg
# [7] = T 30 min after ip administration, 32.25 μmol/kg (diazepam 2 mg/kg)
# [8] = T 60 min after ip administration, 32.25 μmol/kg (diazepam 2 mg/kg)
# [9] = T 120 min after ip administration, 32.25 μmol/kg (diazepam 2 mg/kg)
Structure (SMILES),"antinociceptive activity (AA), hot plate (Swiss mice [1])",reversal of hyperalgesia signs associated with neuropathic pain (rats subjected to SNL [2]; [5]),"increase on the latency vs control post-surgery (rats subjected to SNL [2]; since the 3rd day of treatment, 32.25 μmol/kg ip)","paw withdrawal threshold, mechanical allodynia (rats subjected to SNL [3]; after 3 days of treatment, 32.25 μmol/kg ip, p<0.05)",reversal of allodynia signs associated with neuropathic pain (rats subjected to SNL [3]; [5]),"animal residence time on the rotational cylinder compared to controls (Swiss-type male mice; 15 minutes after administration, 32.25 μmol/kg)",Mice residence time on the rotational cylinder (Swiss-type male mice; [6]) [s],Mice residence time on the rotational cylinder (Swiss-type male mice; [7]) [s],Mice residence time on the rotational cylinder (Swiss-type male mice; [8]) [s],Mice residence time on the rotational cylinder (Swiss-type male mice; [9]) [s],side effects compared to morphine (Swiss mice [4]),melting point [°C]
"CCN1CCN(CCc2c[nH]nc2-c2ccc(F)cc2)CC1.Cl.Cl.Cl.O.O.O [C12, 1-ethyl-4-{2-[3-(4-fluorophenyl)-1H-pyrazol-4-yl]ethyl}piperazine trihydrochloride trihydrate]",exhibit antinociceptive activity of intensity and kinetics similar to morphine sulfate,effective in reverse the hyperalgesia and allodynia signs,statistically significant increase,significant (p<0.05) paw withdrawal threshold,effective in reverse the hyperalgesia and allodynia signs,"equal to the time observed for the negative control, and significantly higher than the time observed for the control amitriptyline hydrochloride",179.6,178.6,178.2,179.8,no side effects of conventional morphine,–
"OC1(c2ccc(Cl)cc2)CCN(CCc2c[nH]nc2-c2ccc(F)cc2)CC1 [C13, 4-(4-chlorophenyl)-1-{2-[3-(4-fluorophenyl)-1H-pyrazol-4-yl]ethyl}piperidin-4-ol]",exhibit antinociceptive activity of intensity and kinetics similar to morphine sulfate,–,–,–,–,–,100.9,95.5,143.7,152.4,no side effects of conventional morphine,142 to 144
